Results on five compounds are retold here after ChEMBL document CHEMBL2010746, “Synthesis, resolution and anticonvulsant activity of chiral N-1'-ethyl,N-3'-(1-phenylethyl)-(R,S)-2'H,3H,5'H-spiro-(2-benzofuran-1,4'-imidazolidine)-2',3,5'-trione diastereomers” (2012).

Experiment [1] concerns Mus musculus. As to the kind of experiment: Anticonvulsant activity in mouse assessed as decrease in pentylenetetrazol-induced convulsions up to 300 mg/kg, ip at 30 mins. Type of experiment: functional, organism-based. Also on record: dose 300 mg/kg.
In experiment [2] the test system is Mus musculus. As to the kind of experiment: Anticonvulsant activity in ip dosed mouse assessed as decrease in pentylenetetrazol-induced convulsions at 30 mins. Type of experiment: functional. As to conditions: 0.5 h.
The test system of experiment [3] is Mus musculus. Description: Anticonvulsant activity in mouse assessed as decrease in pentylenetetrazol-induced convulsions at 300 mg/kg, ip at 30 mins. Also on record: dose 300 mg/kg. It counts as functional, organism-based.

The source made the active and inactive calls. The rule behind the calls is not given here.

In the case of `CCN1C(=O)N([C@@H](C)c2ccccc2)[C@]2(OC(=O)c3ccccc32)C1=O`, in experiment [1], the outcome was inactive.
For the compound `CCC1(c2ccccc2)C(=O)NC(=O)NC1=O` [PHENOBARBITAL], the ED50 in experiment [2] worked out at 25 mg/kg.
The same measure, in the same setting: with `CCN1C(=O)N([C@@H](C)c2ccccc2)[C@@]2(OC(=O)c3ccccc32)C1=O` the figure was 300 mg/kg.
In the case of `CCN1C(=O)N([C@H](C)c2ccccc2)[C@]2(OC(=O)c3ccccc32)C1=O`, in experiment [3], the outcome was Active.
With `CCN1C(=O)N([C@H](C)c2ccccc2)[C@@]2(OC(=O)c3ccccc32)C1=O`, the outcome in experiment [1] was inactive.

For orientation: ED50 means the dose that gives a 50% effect, or the effect in half of the subjects.
